This is an account of results in patent US9428507B2, “Compounds for the treatment of malaria” (The Broad Institute, Inc., priority 2013, dated 2016).

One experiment relates to Dd2 strain of P. falciparum. The experiment is described as follows: Activity against the Dd2 strain of P. falciparum (SYBR Green I, 72-h incubation). It is filed as cell-based. Conditions: Plasmodium falciparum, DD2, 72 h, read-out: EC^50 Dd2. Put shortly: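 Dd2 parasites at 1% parasitemia and 1.0% hematocrit in albumax II screening medium, 72 h at 37° C under 93% N2/4% CO2/3% O2; final DMSO 0.125%. Growth read as SYBR Green I fluorescence (485/530 nm) after lysis and 24 h staining. 20 μM mefloquine defined background, DMSO baseline.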
Take `CC(=O)Oc1ccc2c3c([nH]c2c1)[C@H](CO)N(C(C)=O)CC31CCN(C(=O)Nc2ccccc2F)CC1` [Compound 138, (R)-1-(1-(benzo[d]thiazol-2-yl)-1′-(hydroxymethyl)-7′-methoxyspiro [piperidine-4,4′-py(R)-2′-acetyl-1-((2-fluorophenyl)carbamoyl)-1′-(hydroxymethyl)-1′,2′,3′,9′-tetrahydrospiro [piperidine-4,4′-pyrido[3,4-b]indol]-7′-ylacetaterido[3,4-b]indol]-2′(1′H,3′H,9′H)-yl)ethanone]: the EC50 is 4.5 µM.
The same measure, in the same setting: next, `COc1cc2[nH]c3c(c2cc1OC)C1(CCN(C(=O)Nc2ccccc2F)CC1)CN(C(C)=O)[C@H]3CO` [Compound 139, (R)-2′-acetyl-N-(2-fluorophenyl)-1′-(hydroxymethyl)-6′,7′-d imethoxy-1′,2′,3′,9′-tetrahydrospiro [piperidine-4,4′-pyrido[3,4-b]indole]-1-carboxamide]: 5.76 µM; `COc1ccc2c3c([nH]c2c1)[C@H]1COCC(=O)N1CC31CCN(C(=O)Nc2ccccc2F)CC1` [Compound 140, (S)-N-(2-fluorophenyl)-10-methoxy-4-oxo-1,3,4,6,12,12b-hexahydrospiro [[1,4]oxazino[4′,3′:1 ,2]pyrido[3,4-b]indole-7,4′-piperidine]-1′-carboxamide]: 2.47 µM.
On to `CC(=O)N1CC2(CCN(C(=O)Nc3ccccc3F)CC2)c2c([nH]c3cc(OC(C)C)ccc23)[C@@H]1CO` [Compound 141, (R)-2′-acetyl-N-(2-fluorophenyl)-1′-(hydroxymethyl)-7′-isopropoxy-1′,2′,3′,9′-tetrahydrospiro [piperidine-4,4′-pyrido[3,4-b]indole]-1-carboxamide], for which the EC50 came out at 6.71 µM.
Still for that read-out and setting: next, `CC(=O)N1CC2(CCN(C(=O)Nc3ccccc3F)CC2)c2c([nH]c3cc(O)ccc23)[C@@H]1CO` [Compound 142, (R)-2′-acetyl-N-(2-fluorophenyl)-7′-hydroxy-1′-(hydroxymethyl)-1′,2′,3′,9′-tetrahydrospiro [piperidine-4,4′-pyrido[3,4-b]indole]-1-carboxamide]: 6.04 µM; `COc1ccc2c3c([nH]c2c1)[C@H](CO)N(Cc1ccccc1)CC31CCN(C(=O)Nc2ccccc2F)CC1` [Compound 143, (R)-2′-benzyl-N-(2-fluorophenyl)-1′-(hydroxymethyl)-7′-methoxy-1′,2′,3′,9′-tetrahydrospiro [piperidine-4,4′-pyrido[3,4-b]indole]-1-carboxamide]: 5 µM.
The same measure, in the same setting: next, `COc1ccc2c3c([nH]c2c1)[C@H](CO)N(S(=O)(=O)c1ccc(C)cc1)CC31CCN(C(=O)Nc2ccccc2F)CC1` [Compound 144, (R)-N-(2-fluorophenyl)-1′-(hydroxymethyl)-7′-methoxy-2′-tosyl-1′,2′,3′,9′-tetrahydrospiro [piperidine-4,4′-pyrido[3,4-b]indole]-1-carboxamide]: 1.08 µM; `COc1ccc2c3c([nH]c2c1)[C@H](CO)N(S(=O)(=O)C1CC1)CC31CCN(C(=O)Nc2ccccc2F)CC1` [Compound 145, (R)-2′-(cyclopropylsulfonyl)-N-(2-fluorophenyl)-1′-(hydroxymethyl)-7′-methoxy-1′,2′,3′,9′-tetrahydrospiro [piperidine-4,4′-pyrido[3,4-b]indole]-1-carboxamide]: 0.113 µM.
`COc1ccc2c3c([nH]c2c1)[C@H](CO)N(S(=O)(=O)C(F)(F)F)CC31CCN(C(=O)Nc2ccccc2F)CC1` [Compound 146, (R)-N-(2-fluorophenyl)-1′-(hydroxymethyl)-7′-methoxy-2′-((trifluoromethyl)sulfonyl)-1′,2′,3′,9′-tetrahydrospiro [piperidine-4,4′-pyrido[3,4-b]indole]-1-carboxamide]: the EC50 was 0.269 µM.
In the case of `COc1ccc2c3c([nH]c2c1)[C@H](CO)N(S(=O)(=O)c1ccccc1)CC31CCN(C(=O)Nc2ccccc2F)CC1` [Compound 147, (R)-N-(2-fluorophenyl)-1′-(hydroxymethyl)-7′-methoxy-2′-(phenylsulfonyl)-1′,2′,3′,9′-tetrahydrospiro [piperidine-4,4′-pyrido+[,4-b]indole]-1-carboxamide], the EC50 turned out to be 0.391 µM.
Still for that read-out and setting: next, `CCS(=O)(=O)N1CC2(CCN(C(=O)OC(C)(C)C)CC2)c2c([nH]c3cc(OC)ccc23)[C@@H]1CO` [Compound 148, (R)-tert-butyl 2′-(ethylsulfonyl)-1′-(hydroxymethyl)-7′-methoxy-1′,2′,3′,9′-tetrahydrospiro [piperidine-4,4′-pyrido[3,4-b]indole]-1-carboxylate]: 8.53 µM; `CCCS(=O)(=O)N1CC2(CCN(C(=O)Nc3ccccc3F)CC2)c2c([nH]c3cc(OC)ccc23)[C@@H]1CO` [Compound 149, (R)-N-(2-fluorophenyl)-1′-(hydroxymethyl)-7′-methoxy-2′-(propylsulfonyl)-1′,2′,3′,9′-tetrahydrospiro [piperidine-4,4′-pyrido[3,4-b]indole]-1-carboxamide]: 0.221 µM.
The same measure, in the same setting: next, `CCS(=O)(=O)N1CC2(CCN(C(=O)Nc3ccccc3F)CC2)c2c([nH]c3cc(OC)ccc23)[C@@H]1CO` [Compound 150, (R)-2′-(ethylsulfonyl)-N-(2-fluorophenyl)-1′-(hydroxymethyl)-7′-methoxy-1′,2′,3′,9′-tetrahydrospiro [piperidine-4,4′-pyrido[3,4-b]indole]-1-carboxamide]: 0.014 to 0.058 µM.

The same experiment, now with this note: read-out: EC^50 Dd2.
“Mixture of (1R,3′R) and (1R,3′S)-2-acetyl-1- (((tert-butyldimethylsilyl) oxy)methyl)-N- (2-fluorophenyl)-7-methoxy- 1,2,3,9-tetrahydrospiro [pyrido[3,4-b]indole- 4,3′-pyrrolidine]-1′- carboxamide compound with (1R,3′S)- 2-acetyl-1- (((tert-butyldimethylsilyl) oxy)methyl)-N-(2- fluorophenyl)-7-methoxy- 1,2,3,9- tetrahydrospiro[pyrido [3,4-b]indole-4-3′- pyrrolidine]-1′- carboxamide (1:1) [Compound 75]”: the EC50 amounted to 3.21 µM.
Regarding “Mixture of (1R,3′R) and (1R,3′S)-tert-butyl 2-acetyl-1-(((tert- butyldimethylsilyl)oxy) methyl)-7-methoxy- 1,2,3,9- tetrahydrospiro [pyrido[3,4-b]indole- 4,3′-pyrrolidine]-1′- carboxylate compound with (1R,3′S)-tert-butyl 2-acetyl-1- (((tert-butyldimethylsilyl) oxy)methyl)-7- methyoxy-1,2,3,9- tetrahydrospiro[pyrido [3,4-b]indole-4,3′- pyrrolidine]-1′- carboxylate (1:1) [Compound 76]”, the EC50 is 1.47 µM.
Turning to “Mixture of (1R,3′R) and (1R,3′s)-2-acetyl-N-(2- fluorophenyl)-1- (hydroxymethyl)-7- methoxy-1,2,3,9- tetrahydrospiro[pyrido [3,4-b]indole-4,3′- pyrrolidine]-1′- carboxamide compound with (1R,3′S)-2- acetyl-N-(2- fluorophenyl)-1- (hydroxymethyl)-7- methoxy- 1,2,3,9-tetrahydrospiro [pyrido[3,4-b] indole-4,3′-pyrrolidine]- 1′-carboxamide (1:1) [Compound 72]”, the EC50 was found to be 16.5 µM.
